# According to ChEMBL document CHEMBL1201862, “PubChem BioAssay data set” (2004):
#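 How tested: cells in 96-well plates exposed to compound for 48 hours at five concentrations. GI50 marks 50% less growth.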 Activity calls are given as the source filed them. Cut-off read from the data, not from the text of the source: active = GI50 up to about 1.1 µM and inactive = higher.
# Key:
# Assay in all cases: inhibition of tumour cell growth, NCI panel, 48 h
# [1] = test system: ACHN
# [2] = test system: CCRF-CEM
# [3] = test system: COLO 205
# [4] = test system: HCT-15
# [5] = test system: HL-60
# [6] = test system: HOP-62
# [7] = test system: HOP-92
# [8] = test system: Hs-578T
# [9] = test system: MCF7
# [10] = test system: MDA-MB-231
# [11] = test system: NCI-H226
# [12] = test system: NCI-H23
# [13] = test system: OVCAR-3
# [14] = test system: OVCAR-8
# [15] = test system: SF-268
# [16] = test system: UACC-257
# [17] = test system: CAKI-1
# [18] = test system: M14
# [19] = test system: OVCAR-5
# [20] = test system: SNB-75
SMILES,GI50 [1],GI50 [2],GI50 [3],GI50 [4] [µM],GI50 [5],GI50 [6],GI50 [7],GI50 [8],GI50 [9],GI50 [10],GI50 [11],GI50 [12],GI50 [13],GI50 [14],GI50 [15],GI50 [16],GI50 [17],GI50 [18],GI50 [19],GI50 [20]
COc1cccc2c1[C@H](OC)[C@]13O[C@@]1(C2=O)[C@H](O)[C@H](C)[C@@](O)(C(=O)[C@@H]1O[C@H]1C)[C@@H]3O,0.211 µM (active),0.155 µM (active),0.165 µM (active),0.255,0.31 µM (active),0.232 µM (active),0.194 µM (active),0.235 µM (active),0.294 µM (active),0.202 µM (active),0.335 µM (active),0.196 µM (active),0.276 µM (active),0.217 µM (active),0.246 µM (active),0.225 µM (active),,,,
CC(C)CCC1(CCN)C(=O)NC(=O)NC1=O,> 100 µM (inactive),19.6 µM (inactive),> 100 µM (inactive),> 100,38.2 µM (inactive),> 100 µM (inactive),> 100 µM (inactive),> 100 µM (inactive),> 100 µM (inactive),> 100 µM (inactive),> 100 µM (inactive),> 100 µM (inactive),> 100 µM (inactive),> 100 µM (inactive),> 100 µM (inactive),> 100 µM (inactive),> 100 µM (inactive),> 100 µM (inactive),> 100 µM (inactive),> 100 µM (inactive)
Cc1cc(C)c2c(O)cc(-c3cccc(F)c3)nc2n1,0.0953 µM (active),0.172 µM (active),0.043 µM (active),0.0495,0.0312 µM (active),0.158 µM (active),< 0.01 µM (active),0.0614 µM (active),0.0308 µM (active),0.42 µM (active),0.168 µM (active),0.294 µM (active),0.025 µM (active),0.261 µM (active),1.44 µM (inactive),10.4 µM (inactive),0.0536 µM (active),0.0521 µM (active),0.399 µM (active),0.0692 µM (active)
O=[N+]([O-])c1ccc(/C(=N/c2ccccc2)SS/C(=N\c2ccccc2)c2ccc([N+](=O)[O-])o2)o1,1.91 µM (inactive),2.03 µM (inactive),1.51 µM (inactive),0.552,2.09 µM (inactive),2.17 µM (inactive),2.93 µM (inactive),2.32 µM (inactive),0.444 µM (active),2.74 µM (inactive),18.7 µM (inactive),1.6 µM (inactive),1.53 µM (inactive),1.52 µM (inactive),1.8 µM (inactive),2.11 µM (inactive),1.97 µM (inactive),1.98 µM (inactive),2.08 µM (inactive),1.66 µM (inactive)
O=C1OC(OC/C(Br)=C(\Br)COC2OC(=O)C(Cl)=C2Cl)C(Cl)=C1Cl (centres undefined),5.97 µM (inactive),0.659 µM (active),1.67 µM (inactive),2.8,0.324 µM (active),14.5 µM (inactive),1.05 µM (active),5.57 µM (inactive),4.41 µM (inactive),4.74 µM (inactive),12.8 µM (inactive),3.18 µM (inactive),3.95 µM (inactive),2.4 µM (inactive),8.43 µM (inactive),9.68 µM (inactive),2.26 µM (inactive),3.66 µM (inactive),12.9 µM (inactive),15.9 µM (inactive)
COc1ccc(-c2cc(-c3ccc(Nc4ccnc5cc(Cl)ccc45)cc3)[nH]c(=O)c2C#N)c2ccccc12,27.5 µM (inactive),1.09 µM (active),2.44 µM (inactive),8.45,3.03 µM (inactive),14.5 µM (inactive),3.84 µM (inactive),2.62 µM (inactive),1.92 µM (inactive),3.29 µM (inactive),> 100 µM (inactive),20.3 µM (inactive),2.18 µM (inactive),2.3 µM (inactive),12.7 µM (inactive),24.9 µM (inactive),9.46 µM (inactive),2.03 µM (inactive),41.3 µM (inactive),3.2 µM (inactive)
COC(=O)CC[N+]1([O-])CC1,> 100 µM (inactive),> 100 µM (inactive),> 100 µM (inactive),> 100,> 100 µM (inactive),> 100 µM (inactive),> 100 µM (inactive),> 100 µM (inactive),> 100 µM (inactive),> 100 µM (inactive),> 100 µM (inactive),> 100 µM (inactive),,> 100 µM (inactive),> 100 µM (inactive),> 100 µM (inactive),,> 100 µM (inactive),> 100 µM (inactive),> 100 µM (inactive)
